Measurements: patent publication US20260069588A1, “VEPDEGESTRANT FOR USE IN TREATING CANCER” (Arvinas Operation, Inc., priority 2022, published 2026)

Assay: Phase 1 single agent studies in Japanese and Chinese participants (C4891016, C4891018): adverse events
[1] = TEAE treatment related, 200 mg, N = 15

Text: TEAE's from participants in both studies have been combined and are described below.

## O=C1CC[C@H](N2Cc3cc(N4CCN(CC5CCN(c6ccc([C@@H]7c8ccc(O)cc8CC[C@@H]7c7ccccc7)cc6)CC5)CC4)ccc3C2=O)C(=O)N1 [Compound A, (S)-3-(5-(4-((1-(4-((1R,2S)-6-hydroxy-2-phenyl-1,2,3,4-tetrahydronaphthalen-1-yl)phenyl)piperidin-4-yl)methyl)piperazin-1-yl)-1-oxoisoindolin-2-yl)piperidine-2,6-dione]
[1]
  Gastrointestinal disorders, Grade 3: 0 n (%)
  Gastrointestinal disorders, Grade 4: 0 n (%)
  Gastrointestinal disorders, Grade 5: 0 n (%)
  Gastrointestinal disorders, Missing or Unknown: 0 n (%)
  Gastrointestinal disorders, Total: 4 (26.7) n (%)
  General disorders and administration site conditions, Grade 1: 0 n (%)
  General disorders and administration site conditions, Grade 2: 1 (6.7) n (%)
  General disorders and administration site conditions, Grade 3: 0 n (%)
  General disorders and administration site conditions, Grade 4: 0) n (%)
  General disorders and administration site conditions, Grade 5: 0 n (%)
  General disorders and administration site conditions, Missing or Unknown: 0 n (%)
  General disorders and administration site conditions, Total: 1 (6.7) n (%)
  Headache, Grade 1: 1 (6.7) n (%)
  Headache, Grade 2: 0 n (%)
  Headache, Grade 3: 0 n (%)
  Headache, Grade 4: 0 n (%)
  Headache, Grade 5: 0 n (%)
  Headache, Missing or Unknown: 0 n (%)
  Headache, Total: 1 (6.7) n (%)
  Hyperuricemia, Grade 1: 2 (13.3) n (%)
  Hyperuricemia, Grade 2: 0 n (%)
  Hyperuricemia, Grade 3: 0 n (%)
  Hyperuricemia, Grade 4: 0 n (%)
  Hyperuricemia, Grade 5: 0 n (%)
  Hyperuricemia, Missing or Unknown: 0 n (%)
  Hyperuricemia, Total: 2 (13.3) n (%)
  Hypokalemia, Grade 1: 1 (6.7) n (%)
  Hypokalemia, Grade 2: 0 n (%)
  Hypokalemia, Grade 3: 0 n (%)
  Hypokalemia, Grade 4: 0 n (%)
  Hypokalemia, Grade 5: 0 n (%)
  Hypokalemia, Missing or Unknown: 0 n (%)
  Hypokalemia, Total: 1 (6.7) n (%)
  Hypophosphatasemia, Grade 1: 1 (6.7) n (%)
  Hypophosphatasemia, Grade 2: 0 n (%)
  Hypophosphatasemia, Grade 3: 0 n (%)
  Hypophosphatasemia, Grade 4: 0 n (%)
  Hypophosphatasemia, Grade 5: 0 n (%)
  Hypophosphatasemia, Missing or Unknown: 0 n (%)
  Hypophosphatasemia, Total: 1 (6.7) n (%)
  Investigations, Grade 1: 4 (26.7) n (%)
  Investigations, Grade 2: 1 (6.7) n (%)
  Investigations, Grade 3: 2 (13.3) n (%)
  Investigations, Grade 4: 0 n (%)
  Investigations, Grade 5: 0 n (%)
  Investigations, Missing or Unknown: 0 n (%)
  Investigations, Total: 7 (46.7) n (%)
  Metabolism and nutrition disorders, Grade 1: 3 (20.0) n (%)
  Metabolism and nutrition disorders, Grade 2: 0 n (%)
  Metabolism and nutrition disorders, Grade 3: 0 n (%)
  Metabolism and nutrition disorders, Grade 4: 0 n (%)
  Metabolism and nutrition disorders, Grade 5: 0) n (%)
  Metabolism and nutrition disorders, Missing or Unknown: 0 n (%)
  Metabolism and nutrition disorders, Total: 3 (20.0) n (%)
  Musculoskeletal and connective tissue disorders, Grade 1: 1 (6.7) n (%)
  Musculoskeletal and connective tissue disorders, Grade 2: 0) n (%)
  Musculoskeletal and connective tissue disorders, Grade 3: 0 n (%)
  Musculoskeletal and connective tissue disorders, Grade 4: 0 n (%)
  Musculoskeletal and connective tissue disorders, Grade 5: 0 n (%)
  Musculoskeletal and connective tissue disorders, Missing or Unknown: 0 n (%)
  Musculoskeletal and connective tissue disorders, Total: 1 (6.7) n (%)
  Nausea, Grade 1: 1 (6.7) n (%)
  Nausea, Grade 2: 0 n (%)
  Nausea, Grade 3: 0 n (%)
  Nausea, Grade 4: 0 n (%)
  Nausea, Grade 5: 0 n (%)
  Nausea, Missing or Unknown: 0 n (%)
  Nausea, Total: 1 (6.7) n (%)
  Nervous system disorders, Grade 1: 2 (13.3) n (%)
  Nervous system disorders, Grade 2: 0 n (%)
  Nervous system disorders, Grade 3: 0 n (%)
  Nervous system disorders, Grade 4: 0 n (%)
  Nervous system disorders, Grade 5: 0 n (%)
  Nervous system disorders, Missing or Unknown: 0 n (%)
  Nervous system disorders, Total: 2 (13.3) n (%)
  Neutrophil count decreased, Grade 1: 1 (6.7) n (%)
  Neutrophil count decreased, Grade 2: 0 n (%)
  Neutrophil count decreased, Grade 3: 1 (6.7) n (%)
  Neutrophil count decreased, Grade 4: 0 n (%)
  Neutrophil count decreased, Grade 5: 0 n (%)
  Neutrophil count decreased, Missing or Unknown: 0 n (%)
  Neutrophil count decreased, Total: 2 (13.3) n (%)
  Pain, Grade 1: 0 n (%)
  Pain, Grade 2: 1 (6.7) n (%)
  Pain, Grade 3: 0 n (%)
  Pain, Grade 4: 0 n (%)
  Pain, Grade 5: 0 n (%)
  Pain, Missing or Unknown: 0 n (%)
  Pain, Total: 1 (6.7) n (%)
  Participants with events, Grade 1: 7 (46.7) n (%)
  Participants with events, Grade 2: 2 (13.3) n (%)
  Participants with events, Grade 3: 2 (13.3) n (%)
  Participants with events, Grade 4: 0 n (%)
  Participants with events, Grade 5: 0 n (%)
  Participants with events, Missing or Unknown: 0 n (%)
  Participants with events, Total: 11 (73.3) n (%)
  Platelet count decreased, Grade 1: 1 (6.7) n (%)
  Platelet count decreased, Grade 2: 0 n (%)
  Platelet count decreased, Grade 3: 0 n (%)
  Platelet count decreased, Grade 4: 0 n (%)
  Platelet count decreased, Grade 5: 0) n (%)
  Platelet count decreased, Missing or Unknown: 0 n (%)
  Platelet count decreased, Total: 1 (6.7) n (%)
  Pruritus, Grade 1: 1 (6.7) n (%)
  Pruritus, Grade 2: 0 n (%)
  Pruritus, Grade 3: 0 n (%)
  Pruritus, Grade 4: 0) n (%)
  Pruritus, Grade 5: 0 n (%)
  Pruritus, Missing or Unknown: 0 n (%)
  Pruritus, Total: 1 (6.7) n (%)
  Sinus bradycardia, Grade 1: 1 (6.7) n (%)
  Sinus bradycardia, Grade 2: 0 n (%)
  Sinus bradycardia, Grade 3: 0 n (%)
  Sinus bradycardia, Grade 4: 0 n (%)
  Sinus bradycardia, Grade 5: 0 n (%)
  Sinus bradycardia, Missing or Unknown: 0 n (%)
  Sinus bradycardia, Total: 1 (6.7) n (%)
  Skin and subcutaneous tissue disorders, Grade 1: 2 (13.3) n (%)
  Skin and subcutaneous tissue disorders, Grade 2: 0 n (%)
  Skin and subcutaneous tissue disorders, Grade 3: 0 n (%)
  Skin and subcutaneous tissue disorders, Grade 4: 0 n (%)
  Skin and subcutaneous tissue disorders, Grade 5: 0 n (%)
  Skin and subcutaneous tissue disorders, Missing or Unknown: 0 n (%)
  Skin and subcutaneous tissue disorders, Total: 2 (13.3) n (%)
  White blood cell count decreased, Grade 1: 0 n (%)
  White blood cell count decreased, Grade 2: 0 n (%)
  White blood cell count decreased, Grade 3: 1 (6.7) n (%)
  White blood cell count decreased, Grade 4: 0 n (%)
  White blood cell count decreased, Grade 5: 0 n (%)
  White blood cell count decreased, Missing or Unknown: 0 n (%)
  White blood cell count decreased, Total: 1 (6.7) n (%)
In vivo
  discontinuations due to TEAE: No discontinuations reported due to TEAE
